Results published in paper PMC5077133, “Towards Development of Small Molecule Lipid II Inhibitors as Novel Antibiotics” (PLoS ONE, 2016).

How the values were obtained:
[1] = test system: P. aeruginosa ATCC 27853; test: Antibacterial activity (MIC, broth dilution); assay type: cell-based; settings: CLSI
Method: (§1) Determination of the Minimal Inhibitory Concentrations (MIC) by dilution was carried out by broth dilution according to CLSI standards.

[2] = test system: E. faecium EF1509 (VRE); test: Antibacterial activity (MIC, broth dilution); assay type: cell-based; settings: CLSI, in µg/mL
Method: as §1

[3] = test system: P. aeruginosa PA01; test: Antibacterial activity (MIC, broth dilution); assay type: cell-based; settings: CLSI
Method: as §1

[4] = test system: E. faecium F118 (VRE); test: Antibacterial activity (MIC, broth dilution); assay type: cell-based; settings: CLSI, in µg/mL
Method: as §1

[5] = test system: P. aeruginosa X13273; test: Antibacterial activity (MIC, broth dilution); assay type: cell-based; settings: CLSI, in µg/mL
Method: as §1

[6] = test system: S. aureus MRSA 1094; test: Antibacterial activity (MIC, broth dilution); assay type: cell-based; settings: CLSI
Method: as §1

[7] = test system: S. aureus HFH-30123 (MRSA); test: Antibacterial activity (MIC, broth dilution); assay type: cell-based; settings: CLSI
Method: as §1

[8] = test system: K. pneumoniae NR-15411 (KPC); test: Antibacterial activity (MIC, broth dilution); assay type: cell-based; settings: CLSI
Method: as §1

[9] = test system: E. aerogenes ATCC 13048; test: Antibacterial activity (MIC, broth dilution); assay type: cell-based; settings: CLSI
Method: as §1

[10] = test system: K. pneumoniae NR-15410 (KPC); test: Antibacterial activity (MIC, broth dilution); assay type: cell-based; settings: CLSI
Method: as §1

[11] = test system: E. cloacae ATCC 13047; test: Antibacterial activity (MIC, broth dilution); assay type: cell-based; settings: CLSI
Method: as §1

[12] = test system: A. baumanii ATCC 19606; test: Antibacterial activity (MIC, broth dilution); assay type: cell-based, Acinetobacter baumanii; settings: CLSI, in µg/mL
Summary of the method: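 MIC determined by broth dilution following CLSI standards, using A. baumanii ATCC 19606.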

[13] = Lipid II binding by Surface Plasmon Resonance; settings: SPR, immobilized 3-Lipid II, 25°C
Summary of the method: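 Farnesyl (3-isoprene) Lipid II amine-coupled (50 RUs) on CM5 chips. Compounds injected at 10 μM, 30 μl/min, 25°C, in 10 mM HEPES, 150 mM NaCl, 0.05% P20, pH 7.4 (± 3 mM EDTA), 10% DMSO. Signals corrected against control flow-cell; kinetics fitted from binding isotherms.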

[14] = test system: HeLa cells; test: Cytotoxicity against mammalian cells (MTS assay); assay type: cell-based
Summary of the method: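 HeLa cells exposed 72 h in RPMI1640 to compounds at 64 to 0.125 μg/ml, in triplicate. Viability measured as mitochondrial activity by MTS, and CC50 taken against a standard curve of serially diluted untreated cells.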

[15] = Liver microsome stability; assay type: in vitro ADME; settings: human, human liver microsomes, pH 7.4
Method: The in vitro microsome stability assay was performed using human liver microsomes and a Biomek FXP liquid handling workstation to deliver reagents to a 96 deep well plate on a shaking peltier with temperature controls. Human liver microsomes were purchased from Corning®. The test compound was incubated in an aqueous reaction mixture (200 ul total volume) consisting of human liver microsomes (150 mixed donor pool) and NADPH Regenerating System Solutions A and B (Corning®) in the presence of 100 mM potassium phosphate buffer (pH 7.4). The NADPH solution A comprises nicotinamide adenine dinucleotide phosphate (NADP+) and glucose 6-phosphate and solution B contains glucose-6-phosphate dehydrogenase. Solutions A and B were combined prior to adding to the reaction plate to generate a supply of NADPH. The NADPH was added last to simultaneously initiate the reactions. The final concentration of the test compound was 10 uM and the microsomal protein concentration was 0.5 mg/ml. After incubation at 37°C, the reaction was terminated at 0, 5, 10, 20, 30, 40, 50 and 60 minutes, respectively, by the addition of 600 uL of acetonitrile. Three replicates were run for each time point. The quenched reaction plate was centrifuged at 4500 rpm for 10 minutes. The supernatant was diluted 1:2 in 30% Methanol in water for LC/MS/MS analyses to monitor substrate depletion. Water was substituted for NADPH for the zero time-point samples. A control plate, without NADPH cofactor, was completed on the same day, using the same conditions.
The half-life (t1/2) was obtained using the equation below: t1/2=−0.693/slope
Where slope is the slope of the line formed by ln(% remaining test compound) vs. time. The in vitro intrinsic clearance (CLint) value was calculated using equation: CLint=(0.693/t1/2)(incubation volume(ul)/total microsomal protein(mg))

SMILES	Antibacterial activity (MIC) P. aeruginosa ATCC 27853 [1] [µg/mL]	Antibacterial activity (MIC) E. faecium EF1509 (VRE) [2]	Antibacterial activity (MIC) P. aeruginosa PA01 [3] [µg/mL]	Antibacterial activity (MIC) E. faecium F118 (VRE) [4]	Antibacterial activity (MIC) P. aeruginosa X13273 [5]	Antibacterial activity (MIC) S. aureus MRSA 1094 [6] [µg/mL]	Antibacterial activity (MIC) S. aureus HFH-30123 (MRSA) [7] [µg/mL]	Antibacterial activity (MIC) K. pneumoniae NR-15411 (KPC) [8] [µg/mL]	Antibacterial activity (MIC) E. aerogenes ATCC 13048 [9] [µg/mL]	Antibacterial activity (MIC) K. pneumoniae NR-15410 (KPC) [10] [µg/mL]	Antibacterial activity (MIC) E. cloacae ATCC 13047 [11] [µg/mL]	Antibacterial activity (MIC) A. baumanii ATCC 19606 [12]	Kd [13] [µM]	CC50% (72 h HeLa cells) [14]	microsomal CLint at 10 uM ([15]; read-out: Liver microsome intrinsic clearance (positive control)) [µL/min/mg]	half-life at 10 uM ([15]; read-out: Liver microsome t1/2 (positive control)) [min]
CN(C)c1ccc(/C=C/c2cc(-c3ccc(C(C)(C)C)cc3)cc(-c3ccc(C(C)(C)C)cc3)[o+]2)cc1.F[B-](F)(F)F [6jc-60-1]	≥ 64	8	≥ 64	8	>=64	8	8	≥ 64	≥ 64	≥ 64	≥ 64	>=64	37.9 ± 4	<.78125		
CCc1ccc(-c2cc(/C=C/c3cc4c5c(c3)CCCN5CCC4)[o+]c(-c3ccc(CC)cc3)c2)cc1.F[B-](F)(F)F [6jc-69-1]	≥ 64	2	≥ 64	2	>=64	2	2	≥ 64	≥ 64	≥ 64	≥ 64	32	16.1 ± 0.3	<.78125		
Cc1ccc(-c2cc(/C=C/c3cc4c5c(c3)CCCN5CCC4)[o+]c(-c3ccc(C)c(C)c3)c2)cc1C.F[B-](F)(F)F [6jc-69-3]	≥ 64	2.83	≥ 64	4	>=64	4	4	≥ 64	≥ 64	≥ 64	≥ 64	>=64	0.6 ± 0.1	<.78125		
Clc1ccc(-c2cc(/C=C/c3cc4c5c(c3)CCCN5CCC4)[o+]c(-c3ccc(Cl)cc3)c2)cc1.F[B-](F)(F)F [6jc-69-4]	≥ 64	4	≥ 64	5.66	>=64	8	8	≥ 64	≥ 64	≥ 64	≥ 64	>=64	30.3 ± 0.5	3.09		
Brc1ccc(-c2cc(/C=C/c3cc4c5c(c3)CCCN5CCC4)[o+]c(-c3ccc(Br)cc3)c2)cc1.F[B-](F)(F)F [6jc-69-5]	≥ 64	6	≥ 64	11.31	>=64	≥ 64	64	≥ 64	≥ 64	≥ 64	≥ 64	>=64	32.7 ± 2	4.43		
C(=C\c1c[nH]c2ccccc12)/c1cc(-c2ccccc2)cc(-c2ccccc2)[o+]1.F[B-](F)(F)F [Jc-49-1]	≥ 64	16	≥ 64	16	>=64	8	8	≥ 64	≥ 64	≥ 64	≥ 64	>=64	0.17 ± 0.05	2.2		
COc1ccc2c(c1)[C@]13CCCC[C@@H]1[C@H](C2)N(C)CC3 [dextromethorphan, reference compound]															31	40
